# Test results: patent US20250011368A1, “DLL3 TARGETING PEPTIDES AND CONSTRUCTS THEREOF” (MARIANA ONCOLOGY INC., priority 2023, published 2025)
# pKd: −log10 of the molar value. Bridge positions count the residues as written; N and C are the ends. Square brackets hold non-standard residues; d marks the D form. Peptide text beside a SMILES is read from it. * marks the point of attachment. ξ: configuration not given here. DOTA = O=C(O)CN1CCN(CC(=O)O)CCN(CC(=O)*)CCN(CC(=O)O)CC1; Trp(5-F) = N[C@@H](Cc1c[nH]c2ccc(F)cc12)C(=O)O; Phe(2-CF3) = N[C@@H](Cc1ccccc1C(F)(F)F)C(=O)O; Trp(7-aza) = N[C@@H](Cc1c[nH]c2ncccc12)C(=O)O; Pro(trans-4-F) = O=C(O)[C@@H]1C[C@@H](F)CN1; Phe(4-F) = N[C@@H](Cc1ccc(F)cc1)C(=O)O; Gly(4-THP) = N[C@H](C(=O)O)C1CCOCC1; Nva(3-Et) = CCC(CC)[C@H](N)C(=O)O; Cha = N[C@@H](CC1CCCCC1)C(=O)O; Cba = N[C@@H](CC1CCC1)C(=O)O; Chg = N[C@H](C(=O)O)C1CCCCC1; Tle = CC(C)(C)[C@H](N)C(=O)O; Nle = CCCC[C@H](N)C(=O)O; Aze = O=C(O)[C@@H]1CCN1; ξK = NCCCCC(N)C(=O)O
# Biological target: T1, human DLL3 (Homo sapiens, UniProt Q9NYJ7)
# T1 sequence (Q9NYJ7 27-618): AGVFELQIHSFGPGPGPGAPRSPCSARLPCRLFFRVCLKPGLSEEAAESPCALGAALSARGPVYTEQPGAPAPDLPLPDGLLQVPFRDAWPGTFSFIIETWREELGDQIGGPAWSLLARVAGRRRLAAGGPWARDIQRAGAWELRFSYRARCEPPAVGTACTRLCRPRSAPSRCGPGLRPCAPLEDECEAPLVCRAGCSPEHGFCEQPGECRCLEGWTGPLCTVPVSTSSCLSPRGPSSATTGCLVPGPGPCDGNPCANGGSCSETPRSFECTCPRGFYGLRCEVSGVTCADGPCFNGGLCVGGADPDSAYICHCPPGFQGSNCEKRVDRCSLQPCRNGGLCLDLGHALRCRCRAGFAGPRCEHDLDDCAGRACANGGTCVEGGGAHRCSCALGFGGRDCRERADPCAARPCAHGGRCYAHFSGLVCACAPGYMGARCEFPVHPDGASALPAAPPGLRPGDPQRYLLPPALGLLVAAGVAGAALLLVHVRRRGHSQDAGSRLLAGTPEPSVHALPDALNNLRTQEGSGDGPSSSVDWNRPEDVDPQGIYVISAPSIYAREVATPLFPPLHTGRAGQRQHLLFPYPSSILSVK
# Test: Affinity determination by Surface Plasmon Resonance (SPR)
# Type: binding
# Settings: 25° C., biotinylated human DLL3 immobilized on streptavidin sensor chip, 1:1 binding model; read-out: SPR KD
# Protocol: SPR studies were performed on the compounds disclosed herein using the following protocol.
# Biotinylated target ligand human DLL3 was immobilized on a streptavidin sensor chip. A reference surface was set up for nonspecific binding and refractive index changes. For analysis of the kinetics of interactions, varying concentrations of samples were injected at a flow rate of 100 μL/minute using running buffer containing 20 mM phosphate buffer with 2.7 mM KCl, 137 mM NaCl, 0.05% Surfactant P20 and 2% DMSO. Sensorgram curves were fitted with 1:1 binding model, and affinity and kinetic parameters were obtained using Biacore Insight evaluation 4.0. software.
row,Structure (SMILES),pKd
1,"CC(=O)N[C@@H](Cc1c[nH]c2ccc(F)cc12)C(=O)N[C@H](C(=O)N[C@H](C(=O)N[C@H]1CSSC[C@@H](C(=O)N[C@@H](Cc2c[nH]c3ncccc23)C(=O)N2CC[C@H]2C(=O)NC(CCCCNC(=O)CN2CCN(CC(=O)O)CCN(CC(=O)O)CCN(CC(=O)O)CC2)C(N)=O)NC(=O)[C@H](CC(=O)O)NC(=O)[C@H](Cc2cnc[nH]2)NC(=O)[C@H](Cc2ccc(F)cc2)NC(=O)[C@H](CC(N)=O)NC(=O)[C@H](CC(N)=O)NC1=O)C1CCOCC1)[C@@H](C)O (stereo partly drawn) [compound 123, Ac-(5Fluoro-W)-T-(THPG)-C(3)-N-N-(4Fluoro-F)-H-D-C(3)-(7Aza-W)-(Aze)-[D-Lys(DOTA)]-NH2] (Ac-[Trp(5-F)]T[Gly(4-THP)]CNN[Phe(4-F)]HDC[Trp(7-aza)][Aze][ξK](DOTA)-NH2; disulfide 4-10)",7.00 to 8.00
2,"CCCC[C@H](NC(=O)[C@@H](NC(=O)[C@H](Cc1c[nH]c2ccc(F)cc12)NC(C)=O)[C@@H](C)O)C(=O)N[C@H]1CSSC[C@@H](C(=O)N[C@@H](Cc2c[nH]c3ncccc23)C(=O)N2CC[C@H]2C(=O)NC(CCCCNC(=O)CN2CCN(CC(=O)O)CCN(CC(=O)O)CCN(CC(=O)O)CC2)C(N)=O)NC(=O)[C@H](CC(=O)O)NC(=O)[C@H](Cc2cnc[nH]2)NC(=O)[C@H](Cc2ccc(F)cc2)NC(=O)[C@H](CC(N)=O)NC(=O)[C@H](CC(N)=O)NC1=O (stereo partly drawn) [compound 124, Ac-(5Fluoro-W)-T-(Nle)-C(3)-N-N-(4Fluoro-F)-H-D-C(3)-(7Aza-W)-(Aze)-[D-Lys(DOTA)]-NH2] (Ac-[Trp(5-F)]T[Nle]CNN[Phe(4-F)]HDC[Trp(7-aza)][Aze][ξK](DOTA)-NH2; disulfide 4-10)",7.00 to 8.00
3,"CC(=O)N[C@@H](Cc1c[nH]c2ccc(F)cc12)C(=O)N[C@H](C(=O)N[C@@H](CC1CCC1)C(=O)N[C@H]1CSSC[C@@H](C(=O)N[C@@H](Cc2c[nH]c3ncccc23)C(=O)N2CC[C@H]2C(=O)N[C@H](CCCCNC(=O)CN2CCN(CC(=O)O)CCN(CC(=O)O)CCN(CC(=O)O)CC2)C(N)=O)NC(=O)[C@H](CC(=O)O)NC(=O)[C@H](Cc2cnc[nH]2)NC(=O)[C@H](Cc2ccc(F)cc2)NC(=O)[C@H](CC(N)=O)NC(=O)[C@H](CC(N)=O)NC1=O)[C@@H](C)O [compound 126, Ac-(5Fluoro-W)-T-(CBA)-C(3)-N-N-(4Fluoro-F)-H-D-C(3)-(7Aza-W)-(Aze)-[D-Lys(DOTA)]-NH2] (Ac-[Trp(5-F)]T[Cba]CNN[Phe(4-F)]HDC[Trp(7-aza)][Aze][dK](DOTA)-NH2; disulfide 4-10)",7.00 to 8.00
4,"CC(=O)N[C@@H](Cc1c[nH]c2ccc(F)cc12)C(=O)N[C@H](C(=O)N[C@H](C(=O)N[C@H]1CSSC[C@@H](C(=O)N[C@@H](Cc2c[nH]c3ncccc23)C(=O)N2CC[C@H]2C(=O)N[C@H](CCCCNC(=O)CN2CCN(CC(=O)O)CCN(CC(=O)O)CCN(CC(=O)O)CC2)C(N)=O)NC(=O)[C@H](CC(=O)O)NC(=O)[C@H](Cc2cnc[nH]2)NC(=O)[C@H](Cc2ccc(F)cc2)NC(=O)[C@H](CC(N)=O)NC(=O)[C@H](CC(N)=O)NC1=O)C1CCCCC1)[C@@H](C)O [compound 127, Ac-(5Fluoro-W)-T-(Chg)-C(3)-N-N-(4Fluoro-F)-H-D-C(3)-(7Aza-W)-(Aze)-[D-Lys(DOTA)]-NH2] (Ac-[Trp(5-F)]T[Chg]CNN[Phe(4-F)]HDC[Trp(7-aza)][Aze][dK](DOTA)-NH2; disulfide 4-10)",7.00 to 8.00
5,"CC(=O)N[C@@H](Cc1c[nH]c2ccc(F)cc12)C(=O)N[C@H](C(=O)N[C@H](C(=O)N[C@H]1CSSC[C@@H](C(=O)N[C@@H](Cc2c[nH]c3ncccc23)C(=O)N2C[C@H](F)C[C@H]2C(=O)N[C@H](CCCCNC(=O)CN2CCN(CC(=O)O)CCN(CC(=O)O)CCN(CC(=O)O)CC2)C(N)=O)NC(=O)[C@H](CC(=O)O)NC(=O)[C@H](Cc2cnc[nH]2)NC(=O)[C@H](Cc2ccc(F)cc2)NC(=O)[C@H](CC(N)=O)NC(=O)[C@H](CC(N)=O)NC1=O)C(C)(C)C)[C@@H](C)O [compound 129, Ac-(5Fluoro-W)-T-(Tbg)-C(3)-N-N-(4Fluoro-F)-H-D-C(3)-(7Aza-W)-(trans4Fluoro-P)-[D-Lys(DOTA)]-NH2] (Ac-[Trp(5-F)]T[Tle]CNN[Phe(4-F)]HDC[Trp(7-aza)][Pro(trans-4-F)][dK](DOTA)-NH2; disulfide 4-10)",7.00 to 8.00

# Next, values leading:
row,pKd,Structure (SMILES)
1,8.00 to 9.00,"CC(=O)N[C@@H](Cc1c[nH]c2ccc(F)cc12)C(=O)N[C@H](C(=O)N[C@@H](CC1CCCCC1)C(=O)N[C@H]1CSSC[C@@H](C(=O)N[C@@H](Cc2c[nH]c3ncccc23)C(=O)N2CC[C@H]2C(=O)N[C@H](CCCCNC(=O)CN2CCN(CC(=O)O)CCN(CC(=O)O)CCN(CC(=O)O)CC2)C(N)=O)NC(=O)[C@H](CC(=O)O)NC(=O)[C@H](Cc2cnc[nH]2)NC(=O)[C@H](Cc2ccc(F)cc2)NC(=O)[C@H](CC(N)=O)NC(=O)[C@H](CC(N)=O)NC1=O)[C@@H](C)O [compound 125, Ac-(5Fluoro-W)-T-(CHA)-C(3)-N-N-(4Fluoro-F)-H-D-C(3)-(7Aza-W)-(Aze)-[D-Lys(DOTA)]-NH2] (Ac-[Trp(5-F)]T[Cha]CNN[Phe(4-F)]HDC[Trp(7-aza)][Aze][dK](DOTA)-NH2; disulfide 4-10)"
2,8.00 to 9.00,"CC(=O)N[C@@H](Cc1c[nH]c2ccc(F)cc12)C(=O)N[C@H](C(=O)N[C@@H](Cc1ccccc1C(F)(F)F)C(=O)N[C@H]1CSSC[C@@H](C(=O)N[C@@H](Cc2c[nH]c3ncccc23)C(=O)N2CC[C@H]2C(=O)N[C@H](CCCCNC(=O)CN2CCN(CC(=O)O)CCN(CC(=O)O)CCN(CC(=O)O)CC2)C(N)=O)NC(=O)[C@H](CC(=O)O)NC(=O)[C@H](Cc2cnc[nH]2)NC(=O)[C@H](Cc2ccc(F)cc2)NC(=O)[C@H](CC(N)=O)NC(=O)[C@H](CC(N)=O)NC1=O)[C@@H](C)O [compound 128, Ac-(5Fluoro-W)-T-(2CF3-F)-C(3)-N-N-(4Fluoro-F)-H-D-C(3)-(7Aza-W)-(Aze)-[D-Lys(DOTA)]-NH2] (Ac-[Trp(5-F)]T[Phe(2-CF3)]CNN[Phe(4-F)]HDC[Trp(7-aza)][Aze][dK](DOTA)-NH2; disulfide 4-10)"
3,8.00 to 9.00,"CCC(CC)[C@H](NC(=O)[C@@H](NC(=O)[C@H](Cc1c[nH]c2ccc(F)cc12)NC(C)=O)[C@@H](C)O)C(=O)N[C@H]1CSSC[C@@H](C(=O)N[C@@H](Cc2c[nH]c3ncccc23)C(=O)N2C[C@H](F)C[C@H]2C(=O)N[C@H](CCCCNC(=O)CN2CCN(CC(=O)O)CCN(CC(=O)O)CCN(CC(=O)O)CC2)C(N)=O)NC(=O)[C@H](CC(=O)O)NC(=O)[C@H](Cc2c[nH]cn2)NC(=O)[C@H](Cc2ccc(F)cc2)NC(=O)[C@H](CC(N)=O)NC(=O)[C@H](CC(N)=O)NC1=O [compound 130, Ac-(5Fluoro-W)-T-(Env)-C(3)-N-N-(4Fluoro-F)-H-D-C(3)-(7Aza-W)-(trans4Fluoro-P)-[D-Lys(DOTA)]-NH2] (Ac-[Trp(5-F)]T[Nva(3-Et)]CNN[Phe(4-F)]HDC[Trp(7-aza)][Pro(trans-4-F)][dK](DOTA)-NH2; disulfide 4-10)"
4,8.00 to 9.00,"CC(=O)N[C@@H](Cc1c[nH]c2ccc(F)cc12)C(=O)N[C@H](C(=O)N[C@H](C(=O)N[C@H]1CSSC[C@@H](C(=O)N[C@@H](Cc2c[nH]c3ncccc23)C(=O)N2C[C@H](F)C[C@H]2C(=O)N[C@H](CCCCNC(=O)CN2CCN(CC(=O)O)CCN(CC(=O)O)CCN(CC(=O)O)CC2)C(N)=O)NC(=O)[C@H](CC(=O)O)NC(=O)[C@H](Cc2cnc[nH]2)NC(=O)[C@H](Cc2ccc(F)cc2)NC(=O)[C@H](CC(N)=O)NC(=O)[C@H](CC(N)=O)NC1=O)C1CCOCC1)[C@@H](C)O [compound 131, Ac-(5Fluoro-W)-T-(THPG)-C(3)-N-N-(4Fluoro-F)-H-D-C(3)-(7Aza-W)-(trans4Fluoro-P)-[D-Lys(DOTA)]-NH2] (Ac-[Trp(5-F)]T[Gly(4-THP)]CNN[Phe(4-F)]HDC[Trp(7-aza)][Pro(trans-4-F)][dK](DOTA)-NH2; disulfide 4-10)"
5,8.00 to 9.00,"CCCC[C@H](NC(=O)[C@@H](NC(=O)[C@H](Cc1c[nH]c2ccc(F)cc12)NC(C)=O)[C@@H](C)O)C(=O)N[C@H]1CSSC[C@@H](C(=O)N[C@@H](Cc2c[nH]c3ncccc23)C(=O)N2C[C@H](F)C[C@H]2C(=O)N[C@H](CCCCNC(=O)CN2CCN(CC(=O)O)CCN(CC(=O)O)CCN(CC(=O)O)CC2)C(N)=O)NC(=O)[C@H](CC(=O)O)NC(=O)[C@H](Cc2cnc[nH]2)NC(=O)[C@H](Cc2ccc(F)cc2)NC(=O)[C@H](CC(N)=O)NC(=O)[C@H](CC(N)=O)NC1=O [compound 132, Ac-(5Fluoro-W)-T-(Nle)-C(3)-N-N-(4Fluoro-F)-H-D-C(3)-(7Aza-W)-(trans4Fluoro-P)-[D-Lys(DOTA)]-NH2] (Ac-[Trp(5-F)]T[Nle]CNN[Phe(4-F)]HDC[Trp(7-aza)][Pro(trans-4-F)][dK](DOTA)-NH2; disulfide 4-10)"
